{"source": "the supplement of paper PMC11208160"}
{"assay": "recombinant UMI read abundance after kanamycin selection (control-corrected) (log10(CPM+1)); higher = more efficient recombination; extreme values may be limits of the assay; sequences stand for … in AGTGCAGAGAAAATCGGCCAGTTTTCTCTGCCTGCAGTCCGCATGCCGTGGGACCCCTTGGGTTCTAACCTGTTGCCTAGATTTATGCAGCGGACTGCCTTTCTCCCAAAGTGATAAACCGG…AGGTTGGTTTCACT; site = the 11-nt donor", "summary_of_the_method": "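Counts of recombinant UMIs were reported as log10(CPM+1). Before that, they were converted to CPM, averaged over replicates and scaled using control-derived factors. They came from PCR across the donor–target junction after Escherichia coli carrying the pair library and target plasmid was plated on IPTG (0.07 mM) plus kanamycin, or unselected, in two replicates each.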"}
{"sequence": "CTAGTATCATGGACCGGTTTTCCCGGTAATCCGTATTTGAC (site ATAGTAGCTGT)", "recombinant UMI read abundance (log10)": 0.00849}
{"sequence": "CTAGTATCATGGACCGGTTTTCCCGGTAATCCGTATTTGAC (site ATAGTATCTGG)", "recombinant UMI read abundance (log10)": 0.298}
{"sequence": "CTAGTATCATGGACCGGTTTTCCCGGTAATCCGTATTTGAC (site ATAGTATCTGT)", "recombinant UMI read abundance (log10)": 0.432}
{"sequence": "CTAGTATCATGGACCGGTTTTCCCGGTAATCCGTATTTGAC (site ATAGTATCTTT)", "recombinant UMI read abundance (log10)": 0.00657}
{"sequence": "CTAGTATCATGGACCGGTTTTCCCGGTAATCCGTATTTGAC (site ATAGTTTCTGT)", "recombinant UMI read abundance (log10)": 0}
{"sequence": "CTAGTATCATGGACCGGTTTTCCCGGTAATCCGTATTTGAC (site ATGGTATCTGT)", "recombinant UMI read abundance (log10)": 0.837}
{"sequence": "CTAGTATCATGGACCGGTTTTCCCGGTAATCCGTATTTGAC (site CAAATATCTGT)", "recombinant UMI read abundance (log10)": 0}
{"sequence": "CTAGTATCATGGACCGGTTTTCCCGGTAATCCGTATTTGAC (site CAAGAATCTGT)", "recombinant UMI read abundance (log10)": 0}
{"sequence": "CTAGTATCATGGACCGGTTTTCCCGGTAATCCGTATTTGAC (site CAAGTAACTGT)", "recombinant UMI read abundance (log10)": 0.0563}
{"sequence": "CTAGTATCATGGACCGGTTTTCCCGGTAATCCGTATTTGAC (site CAAGTATCTCT)", "recombinant UMI read abundance (log10)": 0.473}
{"sequence": "CTAGTATCATGGACCGGTTTTCCCGGTAATCCGTATTTGAC (site CAAGTATCTGA)", "recombinant UMI read abundance (log10)": 0}
{"sequence": "CTAGTATCATGGACCGGTTTTCCCGGTAATCCGTATTTGAC (site CAAGTATCTGT)", "recombinant UMI read abundance (log10)": 2.47}
{"sequence": "CTAGTATCATGGACCGGTTTTCCCGGTAATCCGTATTTGAC (site CAAGTCTCTGT)", "recombinant UMI read abundance (log10)": 0}
{"sequence": "CTAGTATCATGGACCGGTTTTCCCGGTAATCCGTATTTGAC (site CACGTATCTGT)", "recombinant UMI read abundance (log10)": 0.0166}
{"sequence": "CTAGTATCATGGACCGGTTTTCCCGGTAATCCGTATTTGAC (site CCACTATCTGT)", "recombinant UMI read abundance (log10)": 0}
{"sequence": "CTAGTATCATGGACCGGTTTTCCCGGTAATCCGTATTTGAC (site CCAGCATCTGT)", "recombinant UMI read abundance (log10)": 0.00896}
{"sequence": "CTAGTATCATGGACCGGTTTTCCCGGTAATCCGTATTTGAC (site CCAGTAGCTGT)", "recombinant UMI read abundance (log10)": 0}
{"sequence": "CTAGTATCATGGACCGGTTTTCCCGGTAATCCGTATTTGAC (site CCAGTATCTGG)", "recombinant UMI read abundance (log10)": 0}
{"sequence": "CTAGTATCATGGACCGGTTTTCCCGGTAATCCGTATTTGAC (site CCAGTATCTGT)", "recombinant UMI read abundance (log10)": 2.69}
{"sequence": "CTAGTATCATGGACCGGTTTTCCCGGTAATCCGTATTTGAC (site CCAGTATCTTT)", "recombinant UMI read abundance (log10)": 0.412}
{"sequence": "CTAGTATCATGGACCGGTTTTCCCGGTAATCCGTATTTGAC (site CCAGTTTCTGT)", "recombinant UMI read abundance (log10)": 0}
{"sequence": "CTAGTATCATGGACCGGTTTTCCCGGTAATCCGTATTTGAC (site CCGGTATCTGT)", "recombinant UMI read abundance (log10)": 0.281}
{"sequence": "CTAGTATCATGGACCGGTTTTCCCGGTAATCCGTATTTGAC (site CGAGGATCTGT)", "recombinant UMI read abundance (log10)": 0}
{"sequence": "CTAGTATCATGGACCGGTTTTCCCGGTAATCCGTATTTGAC (site CGAGTACCTGT)", "recombinant UMI read abundance (log10)": 0}
{"sequence": "CTAGTATCATGGACCGGTTTTCCCGGTAATCCGTATTTGAC (site CGAGTATCTAT)", "recombinant UMI read abundance (log10)": 0}
{"sequence": "CTAGTATCATGGACCGGTTTTCCCGGTAATCCGTATTTGAC (site CGAGTATCTGC)", "recombinant UMI read abundance (log10)": 0}
{"sequence": "CTAGTATCATGGACCGGTTTTCCCGGTAATCCGTATTTGAC (site CGAGTATCTGT)", "recombinant UMI read abundance (log10)": 0.849}
{"sequence": "CTAGTATCATGGACCGGTTTTCCCGGTAATCCGTATTTGAC (site CGAGTGTCTGT)", "recombinant UMI read abundance (log10)": 0}
{"sequence": "CTAGTATCATGGACCGGTTTTCCCGGTAATCCGTATTTGAC (site CGATTATCTGT)", "recombinant UMI read abundance (log10)": 0}
{"sequence": "CTAGTATCATGGACCGGTTTTCCCGGTAATCCGTATTTGAC (site CGTGTATCTGT)", "recombinant UMI read abundance (log10)": 0}
{"sequence": "CTAGTATCATGGACCGGTTTTCCCGGTAATCCGTATTTGAC (site CTAAAATCTGT)", "recombinant UMI read abundance (log10)": 0}
{"sequence": "CTAGTATCATGGACCGGTTTTCCCGGTAATCCGTATTTGAC (site CTAATAACTGT)", "recombinant UMI read abundance (log10)": 0}
{"sequence": "CTAGTATCATGGACCGGTTTTCCCGGTAATCCGTATTTGAC (site CTAATATCTCT)", "recombinant UMI read abundance (log10)": 0.764}
{"sequence": "CTAGTATCATGGACCGGTTTTCCCGGTAATCCGTATTTGAC (site CTAATATCTGA)", "recombinant UMI read abundance (log10)": 0}
{"sequence": "CTAGTATCATGGACCGGTTTTCCCGGTAATCCGTATTTGAC (site CTAATATCTGT)", "recombinant UMI read abundance (log10)": 1.63}
{"sequence": "CTAGTATCATGGACCGGTTTTCCCGGTAATCCGTATTTGAC (site CTAATCTCTGT)", "recombinant UMI read abundance (log10)": 0}
{"sequence": "CTAGTATCATGGACCGGTTTTCCCGGTAATCCGTATTTGAC (site CTACCATCTGT)", "recombinant UMI read abundance (log10)": 0}
{"sequence": "CTAGTATCATGGACCGGTTTTCCCGGTAATCCGTATTTGAC (site CTACTAGCTGT)", "recombinant UMI read abundance (log10)": 0}
{"sequence": "CTAGTATCATGGACCGGTTTTCCCGGTAATCCGTATTTGAC (site CTACTATCTGG)", "recombinant UMI read abundance (log10)": 0}
{"sequence": "CTAGTATCATGGACCGGTTTTCCCGGTAATCCGTATTTGAC (site CTACTATCTGT)", "recombinant UMI read abundance (log10)": 0.925}
{"sequence": "CTAGTATCATGGACCGGTTTTCCCGGTAATCCGTATTTGAC (site CTACTATCTTT)", "recombinant UMI read abundance (log10)": 0.0334}
{"sequence": "CTAGTATCATGGACCGGTTTTCCCGGTAATCCGTATTTGAC (site CTACTTTCTGT)", "recombinant UMI read abundance (log10)": 0}
{"sequence": "CTAGTATCATGGACCGGTTTTCCCGGTAATCCGTATTTGAC (site CTAGAAACTGT)", "recombinant UMI read abundance (log10)": 0}
{"sequence": "CTAGTATCATGGACCGGTTTTCCCGGTAATCCGTATTTGAC (site CTAGAATCTCT)", "recombinant UMI read abundance (log10)": 0}
{"sequence": "CTAGTATCATGGACCGGTTTTCCCGGTAATCCGTATTTGAC (site CTAGAATCTGA)", "recombinant UMI read abundance (log10)": 0}
{"sequence": "CTAGTATCATGGACCGGTTTTCCCGGTAATCCGTATTTGAC (site CTAGAATCTGT)", "recombinant UMI read abundance (log10)": 0.992}
{"sequence": "CTAGTATCATGGACCGGTTTTCCCGGTAATCCGTATTTGAC (site CTAGACTCTGT)", "recombinant UMI read abundance (log10)": 0}
{"sequence": "CTAGTATCATGGACCGGTTTTCCCGGTAATCCGTATTTGAC (site CTAGCAGCTGT)", "recombinant UMI read abundance (log10)": 0}
{"sequence": "CTAGTATCATGGACCGGTTTTCCCGGTAATCCGTATTTGAC (site CTAGCATCTGG)", "recombinant UMI read abundance (log10)": 0}
{"sequence": "CTAGTATCATGGACCGGTTTTCCCGGTAATCCGTATTTGAC (site CTAGCATCTGT)", "recombinant UMI read abundance (log10)": 1.59}
{"sequence": "CTAGTATCATGGACCGGTTTTCCCGGTAATCCGTATTTGAC (site CTAGCATCTTT)", "recombinant UMI read abundance (log10)": 0.0133}
{"sequence": "CTAGTATCATGGACCGGTTTTCCCGGTAATCCGTATTTGAC (site CTAGCTTCTGT)", "recombinant UMI read abundance (log10)": 0}
{"sequence": "CTAGTATCATGGACCGGTTTTCCCGGTAATCCGTATTTGAC (site CTAGGACCTGT)", "recombinant UMI read abundance (log10)": 0}
{"sequence": "CTAGTATCATGGACCGGTTTTCCCGGTAATCCGTATTTGAC (site CTAGGATCTAT)", "recombinant UMI read abundance (log10)": 0.00421}
{"sequence": "CTAGTATCATGGACCGGTTTTCCCGGTAATCCGTATTTGAC (site CTAGGATCTGC)", "recombinant UMI read abundance (log10)": 0}
{"sequence": "CTAGTATCATGGACCGGTTTTCCCGGTAATCCGTATTTGAC (site CTAGGATCTGT)", "recombinant UMI read abundance (log10)": 0.927}
{"sequence": "CTAGTATCATGGACCGGTTTTCCCGGTAATCCGTATTTGAC (site CTAGGGTCTGT)", "recombinant UMI read abundance (log10)": 0}
{"sequence": "CTAGTATCATGGACCGGTTTTCCCGGTAATCCGTATTTGAC (site CTAGTAACTCT)", "recombinant UMI read abundance (log10)": 0.0077}
{"sequence": "CTAGTATCATGGACCGGTTTTCCCGGTAATCCGTATTTGAC (site CTAGTAACTGA)", "recombinant UMI read abundance (log10)": 0}
{"sequence": "CTAGTATCATGGACCGGTTTTCCCGGTAATCCGTATTTGAC (site CTAGTAACTGT)", "recombinant UMI read abundance (log10)": 1.82}
{"sequence": "CTAGTATCATGGACCGGTTTTCCCGGTAATCCGTATTTGAC (site CTAGTACCTAT)", "recombinant UMI read abundance (log10)": 0.00604}
{"sequence": "CTAGTATCATGGACCGGTTTTCCCGGTAATCCGTATTTGAC (site CTAGTACCTGC)", "recombinant UMI read abundance (log10)": 0}
{"sequence": "CTAGTATCATGGACCGGTTTTCCCGGTAATCCGTATTTGAC (site CTAGTACCTGT)", "recombinant UMI read abundance (log10)": 0}
{"sequence": "CTAGTATCATGGACCGGTTTTCCCGGTAATCCGTATTTGAC (site CTAGTAGCTGG)", "recombinant UMI read abundance (log10)": 0}
{"sequence": "CTAGTATCATGGACCGGTTTTCCCGGTAATCCGTATTTGAC (site CTAGTAGCTGT)", "recombinant UMI read abundance (log10)": 0}
{"sequence": "CTAGTATCATGGACCGGTTTTCCCGGTAATCCGTATTTGAC (site CTAGTAGCTTT)", "recombinant UMI read abundance (log10)": 0.0305}
{"sequence": "CTAGTATCATGGACCGGTTTTCCCGGTAATCCGTATTTGAC (site CTAGTATCTAC)", "recombinant UMI read abundance (log10)": 0.564}
{"sequence": "CTAGTATCATGGACCGGTTTTCCCGGTAATCCGTATTTGAC (site CTAGTATCTAT)", "recombinant UMI read abundance (log10)": 2.78}
{"sequence": "CTAGTATCATGGACCGGTTTTCCCGGTAATCCGTATTTGAC (site CTAGTATCTCA)", "recombinant UMI read abundance (log10)": 0.333}
{"sequence": "CTAGTATCATGGACCGGTTTTCCCGGTAATCCGTATTTGAC (site CTAGTATCTCT)", "recombinant UMI read abundance (log10)": 1.67}
{"sequence": "CTAGTATCATGGACCGGTTTTCCCGGTAATCCGTATTTGAC (site CTAGTATCTGA)", "recombinant UMI read abundance (log10)": 1.14}
{"sequence": "CTAGTATCATGGACCGGTTTTCCCGGTAATCCGTATTTGAC (site CTAGTATCTGC)", "recombinant UMI read abundance (log10)": 2.62}
{"sequence": "CTAGTATCATGGACCGGTTTTCCCGGTAATCCGTATTTGAC (site CTAGTATCTGG)", "recombinant UMI read abundance (log10)": 1.48}
{"sequence": "CTAGTATCATGGACCGGTTTTCCCGGTAATCCGTATTTGAC (site CTAGTATCTGT)", "recombinant UMI read abundance (log10)": 2.66}
{"sequence": "CTAGTATCATGGACCGGTTTTCCCGGTAATCCGTATTTGAC (site CTAGTATCTTG)", "recombinant UMI read abundance (log10)": 0.0198}
